Source: ChEMBL document CHEMBL3885881, “DrugMatrix”

Species: Rattus norvegicus
Experiment: DrugMatrix - Regimen: Daily Repeat
Assay type: toxicity, organism-based, Sprague-Dawley
Set-up: regimen Daily Repeat, gender Male, age 6-8 weeks
Conditions: in vivo, po, route oral GAVAGE, vehicle .5 % CMC; for ALBUMIN / ALKALINE PHOSPHATASE / ASPARTATE AMINOTRANSFERASE / BLOOD UREA NITROGEN / CARBON DIOXIDE / CHLORIDE / CHOLESTEROL / CREATINE PHOSPHOKINASE / CREATININE / GLUCOSE / LACTATE DEHYDROGENASE / PHOSPHORUS / POTASSIUM / SODIUM / TOTAL BILIRUBIN / TOTAL PROTEIN / URIC ACID / ALANINE AMINOTRANSFERASE: tissue Plasma; for ABSOLUTE BASOPHIL / ABSOLUTE EOSINOPHIL / ABSOLUTE LYMPHOCYTE / ABSOLUTE SEGMENTED NEUTROPHIL / BASOPHIL / EOSINOPHIL / ERYTHROCYTE COUNT / HEMATOCRIT / LEUKOCYTE COUNT / LYMPHOCYTE / MEAN CORPUSCULAR HEMOGLOBIN / MEAN CORPUSCULAR HEMOGLOBIN CONCENTRATION / MEAN CORPUSCULAR VOLUME / MONOCYTE / NEUTROPHIL / NUCLEATED RED BLOOD CELLS / PLATELET COUNT: tissue Blood
[1] = 3 mg/kg, 120 h, dose level Low, time 5 day
[2] = 250 mg/kg, 72 h, dose level M1, time 3 day
[3] = 250 mg/kg, 120 h, dose level M1, time 5 day
[4] = 500 mg/kg, 72 h, dose level High, time 3 day

CCN(CC)CCOc1ccc(/C(=C(/Cl)c2ccccc2)c2ccccc2)cc1 [ENCLOMIPHENE]
ALBUMIN [1]: 4.23 G/DL
ALKALINE PHOSPHATASE [1]: 396 u/L
ASPARTATE AMINOTRANSFERASE [1]: 74.33 u/L
BLOOD UREA NITROGEN [1]: 15 mg/dL
CARBON DIOXIDE [1]: 26 mmol/L
CHLORIDE [1]: 102.33 MEQ/L
CHOLESTEROL [1]: 19 mg/dL
CREATINE PHOSPHOKINASE [1]: 301 u/L
CREATININE [1]: 0.17 mg/dL
GLUCOSE [1]: 167.33 mg/dL
LACTATE DEHYDROGENASE [1]: 159.33 u/L
PHOSPHORUS [1]: 11.77 mg/dL
POTASSIUM [1]: 6.49 MEQ/L
SODIUM [1]: 144.63 MEQ/L
TOTAL BILIRUBIN [1]: 0.13 mg/dL
TOTAL PROTEIN [1]: 6.17 G/DL
URIC ACID [1]: 1.3 mg/dL
ABSOLUTE BASOPHIL [2]: 0 CELLS/uL
ABSOLUTE EOSINOPHIL [2]: 257 CELLS/uL
ABSOLUTE LYMPHOCYTE [2]: 8100 CELLS/uL
ABSOLUTE SEGMENTED NEUTROPHIL [2]: 6509.67 CELLS/uL
BASOPHIL [2]: 0%
EOSINOPHIL [2]: 1.67%
ERYTHROCYTE COUNT [2]: 6.81 x10E6/uL
HEMATOCRIT [2]: 42.67%
LEUKOCYTE COUNT [2]: 14.87 x10E3/uL
LYMPHOCYTE [2]: 63%
MEAN CORPUSCULAR HEMOGLOBIN [2]: 22.93 pg
MEAN CORPUSCULAR HEMOGLOBIN CONCENTRATION [2]: 36.33 G/DL
MEAN CORPUSCULAR VOLUME [2]: 63.07 fL
MONOCYTE [2]: 0%
NEUTROPHIL [2]: 35.33%
NUCLEATED RED BLOOD CELLS [2]: 0 /100WBC
PLATELET COUNT [2]: 1358.67 x10E3/uL
ALANINE AMINOTRANSFERASE [2]: 103.33 u/L
ALBUMIN [2]: 3.87 G/DL
ALKALINE PHOSPHATASE [2]: 393.33 u/L
ASPARTATE AMINOTRANSFERASE [2]: 112.33 u/L
BLOOD UREA NITROGEN [2]: 17 mg/dL
CARBON DIOXIDE [2]: 21.67 mmol/L
CHLORIDE [2]: 104.67 MEQ/L
CHOLESTEROL [2]: 20.67 mg/dL
CREATINE PHOSPHOKINASE [2]: 596.67 u/L
CREATININE [2]: 0.17 mg/dL
GLUCOSE [2]: 156.67 mg/dL
LACTATE DEHYDROGENASE [2]: 305 u/L
PHOSPHORUS [2]: 12.63 mg/dL
POTASSIUM [2]: 6.02 MEQ/L
SODIUM [2]: 145 MEQ/L
TOTAL BILIRUBIN [2]: 0.0667 mg/dL
TOTAL PROTEIN [2]: 5.43 G/DL
URIC ACID [2]: 2.13 mg/dL
ABSOLUTE BASOPHIL [3]: 0 CELLS/uL
ABSOLUTE EOSINOPHIL [3]: 97.33 CELLS/uL
ABSOLUTE LYMPHOCYTE [3]: 15789.33 CELLS/uL
ABSOLUTE SEGMENTED NEUTROPHIL [3]: 1980 CELLS/uL
BASOPHIL [3]: 0%
EOSINOPHIL [3]: 0.67%
ERYTHROCYTE COUNT [3]: 7.29 x10E6/uL
HEMATOCRIT [3]: 44.07%
LEUKOCYTE COUNT [3]: 17.87 x10E3/uL
LYMPHOCYTE [3]: 88.33%
MEAN CORPUSCULAR HEMOGLOBIN [3]: 22.33 pg
MEAN CORPUSCULAR HEMOGLOBIN CONCENTRATION [3]: 36.8 G/DL
MEAN CORPUSCULAR VOLUME [3]: 60.6 fL
MONOCYTE [3]: 0%
NEUTROPHIL [3]: 11%
NUCLEATED RED BLOOD CELLS [3]: 0 /100WBC
PLATELET COUNT [3]: 1119 x10E3/uL
ALANINE AMINOTRANSFERASE [3]: 135 u/L
ALBUMIN [3]: 3.8 G/DL
ALKALINE PHOSPHATASE [3]: 350 u/L
ASPARTATE AMINOTRANSFERASE [3]: 128 u/L
BLOOD UREA NITROGEN [3]: 17.67 mg/dL
CARBON DIOXIDE [3]: 25.33 mmol/L
CHLORIDE [3]: 104.33 MEQ/L
CHOLESTEROL [3]: 27.67 mg/dL
CREATINE PHOSPHOKINASE [3]: 820.67 u/L
CREATININE [3]: 0.15 mg/dL
GLUCOSE [3]: 142.67 mg/dL
LACTATE DEHYDROGENASE [3]: 135 u/L
PHOSPHORUS [3]: 11.73 mg/dL
POTASSIUM [3]: 6.75 MEQ/L
SODIUM [3]: 147.17 MEQ/L
TOTAL BILIRUBIN [3]: 0.1 mg/dL
TOTAL PROTEIN [3]: 5.37 G/DL
URIC ACID [3]: 1.8 mg/dL
ABSOLUTE BASOPHIL [4]: 0 CELLS/uL
ABSOLUTE EOSINOPHIL [4]: 68.67 CELLS/uL
ABSOLUTE LYMPHOCYTE [4]: 11139 CELLS/uL
ABSOLUTE SEGMENTED NEUTROPHIL [4]: 1343.67 CELLS/uL
BASOPHIL [4]: 0%
EOSINOPHIL [4]: 0.67%
ERYTHROCYTE COUNT [4]: 6.43 x10E6/uL
HEMATOCRIT [4]: 40.43%
LEUKOCYTE COUNT [4]: 12.83 x10E3/uL
LYMPHOCYTE [4]: 86.67%
MEAN CORPUSCULAR HEMOGLOBIN [4]: 24.7 pg
MEAN CORPUSCULAR HEMOGLOBIN CONCENTRATION [4]: 39.23 G/DL
MEAN CORPUSCULAR VOLUME [4]: 62.87 fL
MONOCYTE [4]: 2%
NEUTROPHIL [4]: 10.67%
NUCLEATED RED BLOOD CELLS [4]: 0 /100WBC
PLATELET COUNT [4]: 1271 x10E3/uL
ALANINE AMINOTRANSFERASE [4]: 113.33 u/L
ALBUMIN [4]: 3.63 G/DL
ALKALINE PHOSPHATASE [4]: 288.33 u/L
ASPARTATE AMINOTRANSFERASE [4]: 124 u/L
BLOOD UREA NITROGEN [4]: 11 mg/dL
CARBON DIOXIDE [4]: 32 mmol/L
CHLORIDE [4]: 105.33 MEQ/L
CHOLESTEROL [4]: 25.33 mg/dL
CREATINE PHOSPHOKINASE [4]: 861 u/L
CREATININE [4]: 0.1 mg/dL
GLUCOSE [4]: 141 mg/dL
LACTATE DEHYDROGENASE [4]: 193.67 u/L
PHOSPHORUS [4]: 12.93 mg/dL
POTASSIUM [4]: 5.84 MEQ/L
SODIUM [4]: 146.17 MEQ/L
TOTAL BILIRUBIN [4]: 0.1 mg/dL
TOTAL PROTEIN [4]: 5.03 G/DL
URIC ACID [4]: 1.43 mg/dL
